According to ChEMBL document CHEMBL1201862, “PubChem BioAssay data set” (2004):
Calls of active or inactive are those of the source.

Tests used:
[1] = molecular target: Serine/threonine-protein phosphatase PP1-alpha catalytic subunit (Homo sapiens, UniProt P62136); assay: PP1 phosphatase inhibitors, dose response, biochemical, fluorescence (AID 2394)
[2] = molecular target: T1, Sentrin-specific protease 8 (Homo sapiens, UniProt Q96LD8); format: functional;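 note: luminescence read-out of SENP8 inhibition, dose-response confirmation following an ultra-high-throughput screen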
T1 sequence (Q96LD8 whole entry): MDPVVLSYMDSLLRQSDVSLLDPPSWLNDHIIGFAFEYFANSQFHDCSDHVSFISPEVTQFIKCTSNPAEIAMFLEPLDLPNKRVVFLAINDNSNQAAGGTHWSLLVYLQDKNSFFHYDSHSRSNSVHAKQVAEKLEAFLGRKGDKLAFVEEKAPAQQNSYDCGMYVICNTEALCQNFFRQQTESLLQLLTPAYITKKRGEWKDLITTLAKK

[3] = system: A-375; assay: A375 melanoma cell viability reduction, dose response, counter-screen for MITF modulator project, cherry-pick samples, set 2 (AID 540335); format: functional, cell-based; details: Homo sapiens
[4] = molecular target: Glucose-6-phosphate 1-dehydrogenase (Homo sapiens, UniProt P11413); assay: human G6PD enzyme inhibitors, dose response, selectivity assay for P. falciparum G6PD inhibitor project, biochemical, fluorescence (AID 504792); format: functional
Chain of Glucose-6-phosphate 1-dehydrogenase (P11413 whole entry): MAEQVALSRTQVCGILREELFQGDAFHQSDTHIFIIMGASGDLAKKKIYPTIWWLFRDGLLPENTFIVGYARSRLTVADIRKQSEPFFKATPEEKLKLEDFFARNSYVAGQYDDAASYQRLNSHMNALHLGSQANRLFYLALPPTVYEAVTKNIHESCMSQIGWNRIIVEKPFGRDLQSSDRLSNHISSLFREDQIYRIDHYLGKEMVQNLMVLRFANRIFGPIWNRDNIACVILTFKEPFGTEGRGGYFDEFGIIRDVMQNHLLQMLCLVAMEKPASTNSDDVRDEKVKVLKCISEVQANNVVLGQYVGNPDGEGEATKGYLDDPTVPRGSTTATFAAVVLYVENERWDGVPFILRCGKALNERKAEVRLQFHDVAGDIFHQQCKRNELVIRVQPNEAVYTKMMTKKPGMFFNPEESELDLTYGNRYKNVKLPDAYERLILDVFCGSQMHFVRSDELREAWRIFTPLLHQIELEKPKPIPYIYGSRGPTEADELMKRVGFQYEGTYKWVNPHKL

[5] = molecular target: Genome polyprotein (dengue virus type 2, UniProt P29990); assay: Dengue-2 NS5 methyltransferase inhibitors, primary screen, biochemical, confirmation dose response (AID 588689); format: functional
Chain of Genome polyprotein (P29990 2492-3391 limits assumed): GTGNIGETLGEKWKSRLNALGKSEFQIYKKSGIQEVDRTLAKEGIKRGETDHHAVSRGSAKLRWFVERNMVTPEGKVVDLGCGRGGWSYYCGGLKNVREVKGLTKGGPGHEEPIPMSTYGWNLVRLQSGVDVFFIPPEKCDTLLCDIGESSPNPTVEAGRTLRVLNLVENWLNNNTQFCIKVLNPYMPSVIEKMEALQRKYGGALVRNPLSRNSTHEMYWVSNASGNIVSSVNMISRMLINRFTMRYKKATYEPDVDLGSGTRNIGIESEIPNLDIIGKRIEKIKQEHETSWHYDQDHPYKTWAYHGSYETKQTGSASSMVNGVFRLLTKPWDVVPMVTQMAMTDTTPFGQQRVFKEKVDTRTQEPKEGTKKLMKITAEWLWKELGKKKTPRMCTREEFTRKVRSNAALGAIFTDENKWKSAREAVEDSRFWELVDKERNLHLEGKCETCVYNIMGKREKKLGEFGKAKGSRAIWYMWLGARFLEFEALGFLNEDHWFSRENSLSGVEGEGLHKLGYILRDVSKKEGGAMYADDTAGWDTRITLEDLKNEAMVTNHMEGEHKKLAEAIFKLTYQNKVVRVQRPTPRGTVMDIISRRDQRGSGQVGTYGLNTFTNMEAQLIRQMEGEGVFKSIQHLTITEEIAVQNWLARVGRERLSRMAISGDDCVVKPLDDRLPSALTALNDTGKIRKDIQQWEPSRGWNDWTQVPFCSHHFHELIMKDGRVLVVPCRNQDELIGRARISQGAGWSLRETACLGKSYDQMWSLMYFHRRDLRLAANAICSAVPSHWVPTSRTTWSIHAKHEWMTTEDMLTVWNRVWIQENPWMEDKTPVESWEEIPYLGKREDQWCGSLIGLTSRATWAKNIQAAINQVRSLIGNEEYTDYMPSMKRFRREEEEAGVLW

[6] = molecular target: Endoribonuclease toxin MazF (Escherichia coli K-12, UniProt P0AE70); assay: fluorescent RNA oligo signal without MazF, dose response, counter-screen for MazEF activator project, biochemical, fluorescence, single-stranded RNase substrate (AID 588502); format: functional
Chain of Endoribonuclease toxin MazF (P0AE70 whole entry): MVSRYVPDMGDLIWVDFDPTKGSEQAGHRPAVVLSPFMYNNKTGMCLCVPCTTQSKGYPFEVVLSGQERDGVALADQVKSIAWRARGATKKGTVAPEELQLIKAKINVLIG

[7] = molecular target: T2, Caspase-6 (Homo sapiens, UniProt P55212); assay: human caspase-6 inhibitors, dose response, biochemical, VEID-R110 fluorescence, cherry-pick (AID 720632)
T2 sequence (P55212 whole entry): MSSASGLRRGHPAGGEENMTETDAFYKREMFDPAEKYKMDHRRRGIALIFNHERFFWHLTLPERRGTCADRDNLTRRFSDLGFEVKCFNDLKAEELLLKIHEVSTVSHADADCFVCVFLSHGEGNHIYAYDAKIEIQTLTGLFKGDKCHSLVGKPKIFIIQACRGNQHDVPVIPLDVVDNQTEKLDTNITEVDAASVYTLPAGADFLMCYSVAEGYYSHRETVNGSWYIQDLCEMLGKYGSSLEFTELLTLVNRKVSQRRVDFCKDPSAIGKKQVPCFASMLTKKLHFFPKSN

[8] = molecular target: T3, Heat shock factor protein 1 (Mus musculus, UniProt P38532); assay: inhibition of MG132-induced HSE-luciferase signal, confirmation, cell-based, NIH3T3, luminescence, dose retest (AID 2382); format: functional;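 note: NIH3T3 fibroblasts with HSF1-driven luciferase reporter stressed by proteasome inhibitor MG132; luminescence from HSF1-driven luciferase expression after 8 hours of MG132 stress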
T3 sequence (P38532 whole entry): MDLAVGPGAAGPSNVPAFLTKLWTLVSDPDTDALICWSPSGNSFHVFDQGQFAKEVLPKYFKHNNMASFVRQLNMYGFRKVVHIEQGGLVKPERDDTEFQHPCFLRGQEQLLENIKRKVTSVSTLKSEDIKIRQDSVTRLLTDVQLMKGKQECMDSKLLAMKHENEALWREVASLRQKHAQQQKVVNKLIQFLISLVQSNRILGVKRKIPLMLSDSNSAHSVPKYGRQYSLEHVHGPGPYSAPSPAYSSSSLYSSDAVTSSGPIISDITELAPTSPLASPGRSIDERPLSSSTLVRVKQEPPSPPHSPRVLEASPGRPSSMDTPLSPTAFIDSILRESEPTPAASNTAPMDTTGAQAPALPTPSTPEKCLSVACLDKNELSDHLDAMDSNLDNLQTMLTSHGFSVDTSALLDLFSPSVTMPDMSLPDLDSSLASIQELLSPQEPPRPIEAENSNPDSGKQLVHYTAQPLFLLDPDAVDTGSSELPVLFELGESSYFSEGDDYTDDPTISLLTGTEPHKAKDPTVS

[9] = cells; format: functional, cell-based
[10] = cytotoxicity toward NIH3T3 fibroblasts, dose response, counter-screen, cell-based, ATP luminescence, mouse fibroblasts (AID 2010); format: functional;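 note: cells exposed to compound for about 90 hours before reading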
[11] = cytotoxicity in HEK-293T cells, dose response, cytotoxicity control for TCR NF-kB inhibitor project, luminescence, T-cell screen hits (AID 489026); format: functional, cell-based;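 note: cells exposed to compound about 14 hours before the viability readout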
[12] = Counterscreen for AddAB inhibitors: absorbance-based bacterial cell-based high throughput dose response assay for inhibitors of bacterial viability. [Related pubchem assays (depositor defined):AID435030, AID449728, AID449731, AID488942, AID488955, AID488956]; format: functional
[13] = HepG2 cell cytotoxicity, dose response, cytotoxicity control for Shn3 inhibitor project, CellTiter-Glo, cherry-picked (AID 624134); format: functional, cell-based
[14] = molecular target: T4, Streptokinase A (Streptococcus pyogenes serotype M1, UniProt P10520); assay: S. pyogenes streptokinase expression inhibitors, potency, dose response, plasminogen activation absorbance, OD405 (AID 1914); format: functional, Streptococcus pyogenes M1 GAS;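 note: secreted streptokinase activity via plasminogen activation per viability signal from cell pellet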
T4 sequence (P10520 whole entry): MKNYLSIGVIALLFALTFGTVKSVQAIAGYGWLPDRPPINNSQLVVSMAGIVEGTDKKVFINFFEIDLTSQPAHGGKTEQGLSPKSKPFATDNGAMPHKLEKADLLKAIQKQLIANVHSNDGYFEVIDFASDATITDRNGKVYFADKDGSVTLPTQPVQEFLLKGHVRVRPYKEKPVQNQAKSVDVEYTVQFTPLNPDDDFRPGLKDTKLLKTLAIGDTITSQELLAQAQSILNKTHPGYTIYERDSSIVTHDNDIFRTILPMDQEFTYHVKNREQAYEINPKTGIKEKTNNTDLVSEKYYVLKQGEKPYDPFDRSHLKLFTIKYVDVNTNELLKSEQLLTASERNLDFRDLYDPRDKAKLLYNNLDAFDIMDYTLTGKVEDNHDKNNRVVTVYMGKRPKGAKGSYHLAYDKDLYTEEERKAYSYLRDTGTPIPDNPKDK

[15] = molecular target: T5, Neuropeptide Y receptor type 1 (Homo sapiens, UniProt P25929); assay: Fluorescence-based counterscreen for agonists of NPY-Y2: cell-based high-throughput dose response assay for agonists of NPY-Y1.; format: functional
T5 sequence (P25929 whole entry): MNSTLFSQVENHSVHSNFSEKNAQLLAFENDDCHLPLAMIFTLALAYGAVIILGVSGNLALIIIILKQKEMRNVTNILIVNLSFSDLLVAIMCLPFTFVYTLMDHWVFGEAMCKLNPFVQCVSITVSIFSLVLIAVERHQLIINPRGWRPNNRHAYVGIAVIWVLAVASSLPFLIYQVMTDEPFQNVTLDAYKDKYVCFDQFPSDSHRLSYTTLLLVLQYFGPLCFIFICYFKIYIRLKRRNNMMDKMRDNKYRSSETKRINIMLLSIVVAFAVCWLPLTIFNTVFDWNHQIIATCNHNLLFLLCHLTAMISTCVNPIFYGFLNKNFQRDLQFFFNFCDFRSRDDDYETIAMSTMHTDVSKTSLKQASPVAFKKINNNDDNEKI

[16] = molecular target: Induced myeloid leukemia cell differentiation protein Mcl-1 (Homo sapiens, UniProt Q07820); format: functional
Chain of Induced myeloid leukemia cell differentiation protein Mcl-1 (Q07820 whole entry): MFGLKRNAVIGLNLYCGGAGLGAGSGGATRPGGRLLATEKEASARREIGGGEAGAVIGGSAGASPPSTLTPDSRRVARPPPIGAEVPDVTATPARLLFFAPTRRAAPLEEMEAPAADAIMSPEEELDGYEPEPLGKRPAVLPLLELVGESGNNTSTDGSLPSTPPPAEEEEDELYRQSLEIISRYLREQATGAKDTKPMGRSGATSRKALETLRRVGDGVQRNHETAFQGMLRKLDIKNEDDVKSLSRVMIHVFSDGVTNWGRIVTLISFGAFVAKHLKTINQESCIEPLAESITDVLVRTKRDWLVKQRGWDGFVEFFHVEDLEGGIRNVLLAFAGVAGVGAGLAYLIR

[17] = Concentration-dependent survival of SW480 colon cancer line, luminescence detection with CellTiter-Glo, half-maximal inhibitory concentration (AID 1117338); format: functional
[18] = SNU-C1 cell viability reduction, dose response, CellTiter-Glo luminescence (AID 1117323); format: functional, cell-based
[19] = HeLa 4N DNA content increase, dose response, cell-based, IC50 (AID 1117351); format: functional

Chain of Serine/threonine-protein phosphatase PP1-alpha catalytic subunit (P62136 whole entry): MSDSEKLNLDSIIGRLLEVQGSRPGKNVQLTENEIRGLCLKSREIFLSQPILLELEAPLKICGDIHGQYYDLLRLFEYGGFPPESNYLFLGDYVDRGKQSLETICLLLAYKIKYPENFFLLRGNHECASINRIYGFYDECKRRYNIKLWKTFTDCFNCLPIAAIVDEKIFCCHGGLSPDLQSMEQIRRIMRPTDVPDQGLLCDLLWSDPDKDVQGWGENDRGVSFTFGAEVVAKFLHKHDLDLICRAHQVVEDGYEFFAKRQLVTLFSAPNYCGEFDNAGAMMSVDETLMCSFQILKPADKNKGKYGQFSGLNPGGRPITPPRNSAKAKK

N#Cc1c(N2CCCCC2)nc(N)c2c(N)nc(SCC(=O)O)cc12
IC50 [1]: 44.1 µM (not active) | IC50 [2]: 10.6 µM (active)

CC1(C)Cc2ccccc2C2=NNC(=O)C2=N1
AC50 [3]: 35.3 µM (active)

CCc1ccc(S(=O)(=O)Nc2cc(SCC(=O)O)c(O)c3ccccc23)cc1
IC50 [4]: 50 µM (inactive) | IC50 [5]: 9.53 µM (active)

O=[N+]([O-])c1ccc(Sc2cccc[n+]2[O-])c2nonc12
EC50 [6]: > 99 µM (inactive) | AC50 [7]: 7.21 µM (active)

CCCC(=O)NC(c1ccc(C(C)C)cc1)c1ccc2cccnc2c1O (centres undefined)
EC50 [8]: 1.63 µM (active) | EC50 [9]: > 350 µM (not active) | EC50 [10]: 3.75 µM (active) | IC50 [11]: > 80 µM (inactive) | IC50 [12]: > 119 µM (inactive) | AC50 [13]: 1.91 µM (active)

Oc1c(Cl)cc(Cl)c(Cl)c1Cc1c(O)c(Cl)cc(Cl)c1Cl [HEXACHLOROPHENE]
EC50 [14]: > 150 µM (not active) | EC50 [15]: 9.8 µM (active) | IC50 [16]: 14.8 µM (active) | IC50 [17]: 0.003 µM (active) | IC50 [18]: 0.032 µM (active) | IC50 [19]: > 10 µM (inactive)
